What was measured:
Type in all cases: cell-based
[1] = target: T1, murine NOD1 (Mus musculus, UniProt Q8BHB0); assay: NOD1 functional agonist assay, 293mNOD1-SEAP reporter cells; settings: 293mNOD1 cells, OD above 3*O.D of negative control
T1 construct: expressed in transfected cells; host or cells: HEK293
T1 sequence (Q8BHB0 1-953): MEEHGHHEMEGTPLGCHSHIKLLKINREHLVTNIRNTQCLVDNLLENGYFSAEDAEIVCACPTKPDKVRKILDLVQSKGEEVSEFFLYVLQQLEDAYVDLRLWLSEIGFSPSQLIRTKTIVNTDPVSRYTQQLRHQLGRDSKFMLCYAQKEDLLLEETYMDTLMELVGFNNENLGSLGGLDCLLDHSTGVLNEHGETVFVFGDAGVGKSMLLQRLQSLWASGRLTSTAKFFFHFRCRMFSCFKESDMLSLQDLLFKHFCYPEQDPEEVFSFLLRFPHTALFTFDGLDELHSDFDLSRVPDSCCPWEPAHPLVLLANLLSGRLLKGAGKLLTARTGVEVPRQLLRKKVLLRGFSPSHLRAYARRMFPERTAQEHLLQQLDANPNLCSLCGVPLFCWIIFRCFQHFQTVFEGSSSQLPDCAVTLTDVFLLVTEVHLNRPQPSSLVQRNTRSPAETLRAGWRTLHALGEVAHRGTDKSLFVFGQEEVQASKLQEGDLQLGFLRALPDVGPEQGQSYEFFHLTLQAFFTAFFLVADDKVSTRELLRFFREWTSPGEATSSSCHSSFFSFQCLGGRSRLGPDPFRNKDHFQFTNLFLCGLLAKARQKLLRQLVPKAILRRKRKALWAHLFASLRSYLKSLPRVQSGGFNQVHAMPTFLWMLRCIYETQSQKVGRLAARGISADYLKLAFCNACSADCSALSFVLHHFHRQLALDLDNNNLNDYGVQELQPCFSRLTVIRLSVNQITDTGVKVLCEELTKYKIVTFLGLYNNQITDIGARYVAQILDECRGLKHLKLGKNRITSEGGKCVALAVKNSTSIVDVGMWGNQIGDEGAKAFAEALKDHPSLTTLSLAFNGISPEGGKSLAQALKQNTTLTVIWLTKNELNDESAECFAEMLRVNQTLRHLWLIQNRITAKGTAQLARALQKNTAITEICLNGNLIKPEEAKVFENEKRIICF
Description: (§1) HEK293 cells were stably transfected with plasmid for the overexpression of the NOD1 genes and a reporter plasmid expressing a secreted embryonic alkaline phosphatase (SEAP) gene under the control of a promoter inducible by the transcription factors NF-κB and AP-1. These cells are referred herein as 293hNOD1-SEAP (for cells overexpressing the human NOD1 gene) and 293mNOD1-SEAP (for cells overexpressing the murine NOD1 gene). Upon NOD1 stimulation, these cells induce the activation of NF-κB and AP-1 and subsequently the secretion of SEAP. The reporter protein is easily detectable and measurable when using QUANTI-Blue™ (InvivoGen, San Diego, Calif.), a medium that turns purple/blue in the presence of SEAP.
(§2) The biological activity of the compounds of the invention tested using 293hNOD1 and 293mNOD1 cells. SEAP expression was measured using the commercially available SEAP detection kit (HEK-Blue™ Detection, InvivoGen). The SEAP activity in cells was quantified using the microplate reader (FLUOStar OPTIMA, BMG laboratories), the absorbance values were read using filter with excitation at 620 nm and emission at 655 nm. The results provided in Table 2 were expressed as the concentration were a significant mean optical density (OD) can be observed (above 3*O.D of negative control). As a positive control, the NOD1 pathway was stimulated with commercially available iE-DAP (InvivoGen) and C12-iE-DAP (an acylated derivative of DAP; InvivoGen). As a negative control endotoxin-free water was used. Additionally, 293 cells expressing the SEAP gene but not the NOD1 gene were used as a control.

[2] = target: T2, human NOD1 (Homo sapiens, UniProt Q9Y239); assay: NOD1 functional agonist assay, 293hNOD1-SEAP reporter cells; settings: 293hNOD1 cells, OD above 3*O.D of negative control
T2 construct: expressed in transfected cells; host or cells: HEK293
T2 sequence (Q9Y239 1-953): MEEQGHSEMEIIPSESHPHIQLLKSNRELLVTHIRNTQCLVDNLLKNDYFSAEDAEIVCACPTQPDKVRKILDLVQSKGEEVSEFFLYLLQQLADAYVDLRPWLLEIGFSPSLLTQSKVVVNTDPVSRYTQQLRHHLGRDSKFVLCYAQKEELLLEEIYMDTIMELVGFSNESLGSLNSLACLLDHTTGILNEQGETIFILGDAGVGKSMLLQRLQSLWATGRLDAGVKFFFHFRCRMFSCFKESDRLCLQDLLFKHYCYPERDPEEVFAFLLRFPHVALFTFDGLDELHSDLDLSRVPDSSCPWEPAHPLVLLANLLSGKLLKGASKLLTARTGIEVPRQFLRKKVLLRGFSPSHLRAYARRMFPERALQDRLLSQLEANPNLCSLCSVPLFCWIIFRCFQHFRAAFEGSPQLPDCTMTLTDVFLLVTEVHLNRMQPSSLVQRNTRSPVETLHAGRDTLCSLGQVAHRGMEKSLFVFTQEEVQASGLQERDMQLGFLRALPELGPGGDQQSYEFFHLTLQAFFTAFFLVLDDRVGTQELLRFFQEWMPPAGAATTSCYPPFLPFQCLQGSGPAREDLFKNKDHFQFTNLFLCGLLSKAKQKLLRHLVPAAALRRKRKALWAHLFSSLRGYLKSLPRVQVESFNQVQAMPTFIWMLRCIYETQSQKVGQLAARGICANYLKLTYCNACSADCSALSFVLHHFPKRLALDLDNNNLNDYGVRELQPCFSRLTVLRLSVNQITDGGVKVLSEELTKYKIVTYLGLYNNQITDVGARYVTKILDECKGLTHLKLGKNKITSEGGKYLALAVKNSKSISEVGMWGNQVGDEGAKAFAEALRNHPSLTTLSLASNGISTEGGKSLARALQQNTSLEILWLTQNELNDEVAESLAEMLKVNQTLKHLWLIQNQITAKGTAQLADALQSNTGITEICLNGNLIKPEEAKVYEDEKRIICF
Description: as §1, §2

[3] = target: T3, hNOD2 (Homo sapiens, UniProt Q9HC29); assay: NOD2 functional agonist assay, 293hNOD2-SEAP reporter cells; settings: 293hNOD2 cells, OD above 3*O.D of negative control
T3 construct: expressed in transfected cells; host or cells: HEK293
Description: HEK293 cells were stably transfected with plasmid for the overexpression of the NOD2 genes and a reporter plasmid expressing a secreted embryonic alkaline phosphatase (SEAP) gene under the control of a promoter inducible by the transcription factors NF-κB and AP-1. These cells are referred herein as 293hNOD2-SEAP. Upon NOD2 stimulation, these cells induce the activation of NF-κB and AP-1 and subsequently the secretion of SEAP. The reporter protein is easily detectable and measurable when using QUANTI-Blue™ (InvivoGen, San Diego, Calif.), a medium that turns purple/blue in the presence of SEAP.
The biological activity of the compounds using 293hNOD2 cells. SEAP expression was measured using the commercially available SEAP detection kit (HEK-Blue™ Detection, InvivoGen). The SEAP activity in cells was quantified using the microplate reader (FLUOStar OPTIMA, BMG laboratories), the absorbance values were read using filter with excitation at 620 nm and emission at 655 nm. The results provided in Table 3 were expressed as the concentration were a significant mean optical density (OD) can be observed (above 3*O.D of negative control) as the mean optical density. As a positive control, the NOD2 pathway was stimulated with commercially available MDP (InvivoGen) and M-triDAP (InvivoGen). As a negative control endotoxin-free water was used. Additionally, 293 cells expressing the SEAP gene but not the NOD2 gene were used as a control.

T3 sequence (Q9HC29 whole entry): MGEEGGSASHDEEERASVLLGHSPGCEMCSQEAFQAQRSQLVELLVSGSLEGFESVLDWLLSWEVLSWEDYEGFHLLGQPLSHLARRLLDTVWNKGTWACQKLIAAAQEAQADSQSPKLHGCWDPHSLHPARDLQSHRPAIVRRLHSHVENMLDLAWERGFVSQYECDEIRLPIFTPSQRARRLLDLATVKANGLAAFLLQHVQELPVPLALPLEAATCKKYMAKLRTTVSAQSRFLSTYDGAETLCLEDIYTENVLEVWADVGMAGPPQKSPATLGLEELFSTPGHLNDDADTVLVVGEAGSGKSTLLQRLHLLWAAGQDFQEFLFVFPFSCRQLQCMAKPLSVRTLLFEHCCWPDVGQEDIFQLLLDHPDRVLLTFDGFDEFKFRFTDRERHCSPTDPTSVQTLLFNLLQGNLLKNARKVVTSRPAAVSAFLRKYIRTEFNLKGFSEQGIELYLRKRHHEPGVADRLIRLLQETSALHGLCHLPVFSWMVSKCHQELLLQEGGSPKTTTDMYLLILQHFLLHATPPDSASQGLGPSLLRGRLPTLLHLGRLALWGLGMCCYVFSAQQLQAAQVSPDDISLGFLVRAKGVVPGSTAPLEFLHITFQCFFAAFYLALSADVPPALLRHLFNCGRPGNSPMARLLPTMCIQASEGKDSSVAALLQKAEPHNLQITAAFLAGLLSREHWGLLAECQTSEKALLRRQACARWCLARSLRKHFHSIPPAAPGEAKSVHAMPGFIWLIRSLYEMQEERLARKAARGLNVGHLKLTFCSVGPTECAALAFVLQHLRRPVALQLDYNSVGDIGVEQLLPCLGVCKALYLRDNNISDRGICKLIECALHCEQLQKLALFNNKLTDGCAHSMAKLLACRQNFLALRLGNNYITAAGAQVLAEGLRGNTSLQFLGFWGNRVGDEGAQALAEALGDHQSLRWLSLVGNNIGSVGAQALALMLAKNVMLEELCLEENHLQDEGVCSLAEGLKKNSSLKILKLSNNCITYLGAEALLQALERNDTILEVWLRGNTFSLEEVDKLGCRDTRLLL

| Compound | mNod1: concentration where a significant mean optical density (OD) can be observed [1] | hNod1: concentration where a significant mean optical density (OD) can be observed [2] | hNod2: concentration where a significant mean optical density (OD) can be observed [3] |
| --- | --- | --- | --- |
| CC(=O)N[C@H]1[C@@H](OCc2ccccc2)O[C@H](CO)[C@@H](O)[C@@H]1O[C@H](C)C(=O)N[C@@H](C)C(=O)N[C@H](CCC(=O)N[C@H](CSC[C@H](N)C(=O)O)C(=O)N[C@H](C)C(=O)O)C(=O)O [Example 33, N2-(((R)-2-(((2S,3R,4R,5S,6R)-3-acetamido-2-(benzyloxy)-5-hydroxy-6-(hydroxymethyl)tetrahydro-2H-pyran-4-yl)oxy)propanoyl)-L-alanyl)-N^5-((S)-3-(((R)-2-amino-2-carboxyethyl)thio)-1-(((R)-1-carboxyethyl)amino)-1-oxopropan-2-yl)-D-glutamine] | 1 µg/mL | 1 µg/mL | 1 µg/mL |
| CC(=O)N[C@H]1[C@@H](OCc2ccccc2)O[C@H](CO)[C@@H](O)[C@@H]1O[C@H](C)C(=O)N[C@@H](C)C(=O)N[C@H](CCC(=O)N[C@H](CSC[C@H](N)C(=O)O)C(=O)NCC(=O)O)C(=O)O [Example 32, N^2-(((R)-2-(((2S,3R,4R,5S,6R)-3-acetamido-2-(benzyloxy)-5-hydroxy-6-(hydroxymethyl)tetrahydro-2H-pyran-4-yl)oxy)propanoyl)-L-alanyl)-N^5-((S)-3-(((R)-2-amino-2-carboxyethyl)thio)-1-((carboxymethyl)amino)-1-oxopropan-2-yl)-D-glutamine] | 0.1 µg/mL | 0.1 µg/mL | 0.1 µg/mL |
| CC(=O)N[C@H]1[C@@H](OCc2ccccc2)O[C@H](CO)[C@@H](O)[C@@H]1O[C@H](C)C(=O)N[C@@H](C)C(=O)N[C@H](CCC(=O)N[C@H](CSC[C@H](N)C(=O)O)C(=O)O)C(=O)O [Example 31, N^2-(((R)-2-(((2S,3R,4R,5S,6R)-3-acetamido-2-(benzyloxy)-5-hydroxy-6-(hydroxymethyl)tetrahydro-2H-pyran-4-yl)oxy)propanoyl)-L-alanyl)-N^5-((S)-2-(((R)-2-amino-2-carboxyethyl)thio)-1-carboxyethyl)-D-glutamine] | 1 µg/mL | 1 µg/mL | 0.1 µg/mL |
| CCCCCCCCCCCCCC(=O)N[C@@H](C)C(=O)N[C@H](CCC(=O)N[C@H](CSC[C@H](N)C(=O)O)C(=O)N[C@H](C)C(=O)O)C(=O)O [Example 21, N^5-((S)-3-(((R)-2-amino-2-carboxyethyl)thio)-1-(((R)-1-carboxyethyl)amino)-1-oxopropan-2-yl)-N^2-(tetradecanoyl-L-alanyl)-D-glutamine] | 0.001 µg/mL | 0.01 µg/mL |  |
| N[C@H](CCC(=O)N[C@H](CSC[C@H](N)C(=O)O)C(=O)O)C(=O)O [Example 1, N^5-((S)-2-(((R)-2-amino-2-carboxyethyl)thio)-1-carboxyethyl)-D-glutamine] | 10 µg/mL | 1 µg/mL |  |
| C[C@H](N)C(=O)N[C@H](CCC(=O)N[C@H](CSC[C@H](N)C(=O)O)C(=O)O)C(=O)O [Example 5, N^2-(L-alanyl)-N^5-((S)-2-(((R)-2-amino-2-carboxyethyl)thio)-1-carboxyethyl)-D-glutamine] | 1 µg/mL | 1 µg/mL |  |
| CC(C)[C@H](N)C(=O)N[C@H](CCC(=O)N[C@H](CSC[C@H](N)C(=O)O)C(=O)O)C(=O)O [Example 8, N^2-(L-valyl)-N^5-((S)-2-(((R)-2-amino-2-carboxyethyl)thio)-1-carboxyethyl)-D-glutamine] | 1 µg/mL | 0.1 µg/mL |  |

— patent US20170210778A1, “NOVEL COMPOUNDS” (The Provost, Fellows, Foundation Scholars, and the other …, priority 2014, published 2017)
